{
  "source": "patent US12173089B2",
  "about": "“Inhibition of pulmonary fibrosis with nutlin-3A and peptides” (BOARD OF REGENTS, THE UNIVERSITY OF TEXAS SYSTEM, priority 2013, dated 2024)",
  "origin": "cited, not measured here",
  "tested_on": "LPS-stimulated neutrophils and macrophages",
  "conditions": "cited from earlier work",
  "data": [
    {"smiles": "COc1ccc(C2=NC(c3ccc(Cl)cc3)C(c3ccc(Cl)cc3)N2C(=O)N2CCNC(=O)C2)c(OC(C)C)c1", "note": "(centres unmarked) [nutlin-3a, 4-2-4,5-dihydro-1H-imidazole-1-piperazin-2-one]", "values": [
      {"measurement": "NF-κB DNA-binding activity", "value": "attenuated"},
      {"measurement": "production of proinflammatory cytokines", "value": "attenuated"}
    ]}
  ]
}
